Holding throughout (assay): relative viability (nuclei count vs DMSO), 5 days (fraction); higher = more cells survive
Compound in assay [1]: C1CC2=C(C1)C=C(C=C2)OC3=NC(=C4C(=N3)N(C=N4)CC5=CC=C(C=C5)C6=CC=CC=C6)N[C@@H](CC7=CC=CC=C7)CO [QS11] + CC(=O)Nc1cccc(-n2c(=O)n(C3CC3)c(=O)c3c(Nc4ccc(I)cc4F)n(C)c(=O)c(C)c32)c1 [Trametinib] (partner 0.02 µM)
In a few lines:
(§1)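 Five library-drug doses in √10 steps were combined with a fixed anchor-drug dose, or a single drug was given alone, by pin tool to lung cancer cell lines in 1536-well plates the day after seeding. Nuclei were stained and counted after 5 days. Relative viability is the nuclei count in treated wells over that in vehicle wells, taken as the median of duplicate plates.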

Compound in assay [2]: C1CC2=C(C1)C=C(C=C2)OC3=NC(=C4C(=N3)N(C=N4)CC5=CC=C(C=C5)C6=CC=CC=C6)N[C@@H](CC7=CC=CC=C7)CO [QS11] + CS(=O)(=O)N1CCN(Cc2cc3nc(-c4cccc5[nH]ncc45)nc(N4CCOCC4)c3s2)CC1 [Pictilisib] (partner 1 µM)
An outline of the steps: as §1

Compound in assay [3]: CC1=C(C=C(C=C1)NC(=O)C2=CC(=CC=C2)C(C)(C)C#N)NC3=CC4=C(C=C3)N=CN(C4=O)C [AZ628] + Cc1nc(NC(=O)N2CCC[C@H]2C(N)=O)sc1-c1ccnc(C(C)(C)C(F)(F)F)c1 [Alpelisib] (partner 2 µM)
In a few lines: as §1

Compound in assay [4]: C[As](C)SC[C@H](NC(=O)CC[C@H](N)C(=O)O)C(=O)NCC(=O)O [Darinaparsin] + N=C(N)NC(=N)NCCc1ccccc1 [Phenformin] (partner 250 µM)
In a few lines:
as §1

NCI-H460: the relative viability in assay [1] (first compound 0.08 µM) was determined as 0.13; in assay [1] (first compound 0.253 µM), 0.158; in assay [1] (first compound 0.8 µM) it was 0.131; in assay [1] (first compound 2.53 µM), 0.0849; in assay [1] (first compound 8 µM), 0.0752; in assay [2] (first compound 0.08 µM), 0.301. The relative viability was 0.351 in assay [2] (first compound 0.253 µM); 0.532 in assay [2] (first compound 0.8 µM); 0.352 in assay [2] (first compound 2.53 µM); 0.473 in assay [2] (first compound 8 µM); 0.459 in assay [3] (first compound 0.08 µM); 0.335 in assay [3] (first compound 0.253 µM). Moreover, the relative viability was 0.325 in assay [3] (first compound 0.8 µM); 0.271 in assay [3] (first compound 2.53 µM); 0.13 in assay [3] (first compound 8 µM); 0.553 in assay [4] (first compound 0.08 µM); 0.557 in assay [4] (first compound 0.8 µM); 0.506 in assay [4] (first compound 2.53 µM). Besides, the relative viability in assay [4] (first compound 8 µM) came out at 0.884.

For the cell line PC-14, the relative viability in assay [1] (first compound 0.253 µM) came out at 0.66; in assay [1] (first compound 0.8 µM), 0.698; in assay [1] (first compound 2.53 µM), 0.717; in assay [1] (first compound 8 µM), 0.634; in assay [2] (first compound 0.08 µM), 0.658; in assay [2] (first compound 0.253 µM) it was 0.639. The relative viability came to 0.667 in assay [2] (first compound 0.8 µM); 0.569 in assay [2] (first compound 2.53 µM); 0.604 in assay [2] (first compound 8 µM); 1 in assay [3] (first compound 0.08 µM); 0.854 in assay [3] (first compound 0.253 µM); 0.923 in assay [3] (first compound 0.8 µM). Moreover, the relative viability in assay [3] (first compound 2.53 µM) worked out at 1.01; in assay [3] (first compound 8 µM) it was 0.751; in assay [4] (first compound 0.08 µM) it was 0.653; in assay [4] (first compound 0.8 µM) it was 0.55; in assay [4] (first compound 2.53 µM), 0.716; in assay [4] (first compound 8 µM), 0.698.

Turning to HCC-15, the relative viability in assay [1] (first compound 0.08 µM) stood at 0.307; in assay [1] (first compound 0.253 µM) it was 0.388; in assay [1] (first compound 0.8 µM), 0.335; in assay [1] (first compound 2.53 µM), 0.319; in assay [1] (first compound 8 µM), 0.314; in assay [2] (first compound 0.08 µM), 0.732. Also, the relative viability in assay [2] (first compound 0.253 µM) worked out at 0.868; in assay [2] (first compound 2.53 µM), 0.816; in assay [2] (first compound 8 µM), 0.719; in assay [3] (first compound 0.08 µM) it was 0.967; in assay [3] (first compound 0.253 µM), 0.742; in assay [3] (first compound 0.8 µM), 0.707. For the same cell line, the relative viability in assay [3] (first compound 2.53 µM) was 0.699; in assay [3] (first compound 8 µM), 0.392; in assay [4] (first compound 0.08 µM), 0.642; in assay [4] (first compound 0.8 µM), 0.481; in assay [4] (first compound 2.53 µM) it was 0.353; in assay [4] (first compound 8 µM) it was 0.61.

Regarding NCI-H1437, the relative viability amounted to 0.551 in assay [1] (first compound 0.08 µM); 0.561 in assay [1] (first compound 0.253 µM); 0.474 in assay [1] (first compound 0.8 µM); 0.477 in assay [1] (first compound 2.53 µM); 0.499 in assay [1] (first compound 8 µM); 0.421 in assay [2] (first compound 0.08 µM). The relative viability in assay [2] (first compound 0.253 µM) worked out at 0.468; in assay [2] (first compound 0.8 µM), 0.38; in assay [2] (first compound 2.53 µM) it was 0.41; in assay [2] (first compound 8 µM), 0.399; in assay [3] (first compound 0.08 µM), 0.958; in assay [3] (first compound 0.253 µM), 0.976. Besides, the relative viability worked out at 1.02 in assay [3] (first compound 0.8 µM); 1.01 in assay [3] (first compound 2.53 µM); 0.988 in assay [3] (first compound 8 µM); 0.327 in assay [4] (first compound 0.08 µM); 0.298 in assay [4] (first compound 0.8 µM); 0.358 in assay [4] (first compound 2.53 µM). Also, the relative viability in assay [4] (first compound 8 µM) stood at 0.281.

COR-L23: the relative viability in assay [1] (first compound 0.08 µM) came out at 0.577; in assay [1] (first compound 0.253 µM), 0.605; in assay [1] (first compound 0.8 µM), 0.585; in assay [1] (first compound 2.53 µM), 0.551; in assay [1] (first compound 8 µM), 0.598; in assay [2] (first compound 0.08 µM), 0.807. The relative viability turned out to be 0.717 in assay [2] (first compound 0.253 µM); 0.806 in assay [2] (first compound 0.8 µM); 0.662 in assay [2] (first compound 2.53 µM); 0.681 in assay [2] (first compound 8 µM); 0.864 in assay [3] (first compound 0.08 µM); 0.732 in assay [3] (first compound 0.253 µM). Besides, the relative viability in assay [3] (first compound 0.8 µM) was 0.762; in assay [3] (first compound 2.53 µM) it was 0.808; in assay [3] (first compound 8 µM), 0.334; in assay [4] (first compound 0.08 µM), 0.544; in assay [4] (first compound 0.8 µM), 0.405; in assay [4] (first compound 2.53 µM) it was 0.379. In addition, in assay [4] (first compound 8 µM), the relative viability was determined as 0.566.

On to NCI-H1975, for which the relative viability in assay [1] (first compound 0.08 µM) was 0.329; in assay [1] (first compound 0.253 µM), 0.246; in assay [1] (first compound 0.8 µM) it was 0.328; in assay [1] (first compound 2.53 µM), 0.424; in assay [1] (first compound 8 µM) it was 0.327; in assay [2] (first compound 0.08 µM), 0.289. Besides, the relative viability was 0.234 in assay [2] (first compound 0.253 µM); 0.327 in assay [2] (first compound 0.8 µM); 0.364 in assay [2] (first compound 2.53 µM); 0.478 in assay [2] (first compound 8 µM); 0.603 in assay [3] (first compound 0.08 µM); 0.701 in assay [3] (first compound 0.253 µM). Besides, the relative viability in assay [3] (first compound 0.8 µM) stood at 0.594; in assay [3] (first compound 2.53 µM), 0.66; in assay [3] (first compound 8 µM) it was 0.328; in assay [4] (first compound 0.08 µM) it was 0.448; in assay [4] (first compound 0.8 µM), 0.43; in assay [4] (first compound 2.53 µM) it was 0.413. Moreover, the relative viability in assay [4] (first compound 8 µM) stood at 0.427.

As for NCI-H1666, the relative viability was 0.798 in assay [1] (first compound 0.08 µM); 0.852 in assay [1] (first compound 0.253 µM); 0.868 in assay [1] (first compound 0.8 µM); 0.8 in assay [1] (first compound 2.53 µM); 0.749 in assay [1] (first compound 8 µM); 0.328 in assay [2] (first compound 0.08 µM). For the same cell line, the relative viability in assay [2] (first compound 0.253 µM) was 0.359; in assay [2] (first compound 0.8 µM), 0.377; in assay [2] (first compound 2.53 µM) it was 0.474; in assay [2] (first compound 8 µM), 0.423; in assay [3] (first compound 0.08 µM), 0.79; in assay [3] (first compound 0.253 µM) it was 0.765. Besides, the relative viability in assay [3] (first compound 0.8 µM) came out at 0.522; in assay [3] (first compound 2.53 µM), 0.534; in assay [3] (first compound 8 µM), 0.425; in assay [4] (first compound 0.08 µM), 0.623; in assay [4] (first compound 0.8 µM), 0.545; in assay [4] (first compound 2.53 µM), 0.617. In assay [4] (first compound 8 µM), the relative viability was found to be 0.575.

In the case of A-427, the relative viability in assay [1] (first compound 0.08 µM) stood at 0.778; in assay [1] (first compound 0.253 µM), 0.78; in assay [1] (first compound 2.53 µM) it was 0.805; in assay [1] (first compound 8 µM) it was 0.767; in assay [2] (first compound 0.08 µM) it was 0.546; in assay [2] (first compound 0.253 µM) it was 0.788. Besides, the relative viability is 0.608 in assay [2] (first compound 2.53 µM); 0.824 in assay [2] (first compound 8 µM); 1.02 in assay [3] (first compound 0.08 µM); 1.06 in assay [3] (first compound 0.253 µM); 0.624 in assay [3] (first compound 0.8 µM); 0.635 in assay [3] (first compound 2.53 µM). Further, the relative viability in assay [3] (first compound 8 µM) turned out to be 0.222; in assay [4] (first compound 0.08 µM), 0.348; in assay [4] (first compound 0.8 µM) it was 0.316; in assay [4] (first compound 2.53 µM) it was 0.298; in assay [4] (first compound 8 µM), 0.36.

Source of the values: the supplement of paper PMC10307832.
